Reference: ChEMBL document CHEMBL3244201, “Synthesis and specific pressor activity of [1-aspartic acid,5-valine,9-serine]angiotensin I ("fowl angiotensin I")” (1977)

Experiments:
Format in all cases: functional
Rattus norvegicus [1] = species: Rattus norvegicus; assay: Pressor activity in rat assessed as weight basis relative to mammalian [Ile5]angiotensin 2
Rattus norvegicus [2] = species: Rattus norvegicus; assay: Pressor activity in rat assessed as weight basis relative to mammalian [Val5]angiotensin 2
Rattus norvegicus [3] = species: Rattus norvegicus; assay: Pressor activity in rat assessed as weight basis relative to mammalian [Val5]angiotensin 1
Rattus norvegicus [4] = species: Rattus norvegicus; assay: Pressor activity in rat assessed as molar basis relative to mammalian [Val5]angiotensin 1
Rattus norvegicus [5] = species: Rattus norvegicus; assay: Pressor activity in rat assessed as weight basis relative to mammalian [Ile5]angiotensin 1
Rattus norvegicus [6] = species: Rattus norvegicus; assay: Pressor activity in rat assessed as molar basis relative to mammalian [Ile5]angiotensin 2
Rattus norvegicus [7] = species: Rattus norvegicus; assay: Pressor activity in ganglion-blocked vagotomized rat assessed as weight basis relative to mammalian [Ile5]angiotensin 2
Rattus norvegicus [8] = species: Rattus norvegicus; assay: Pressor activity in rat assessed as molar basis relative to mammalian [Ile5]angiotensin 1
Rattus norvegicus [9] = species: Rattus norvegicus; assay: Pressor activity in rat assessed as molar basis relative to mammalian [Val5]angiotensin 2

| Compound | Activity (Rattus norvegicus [1]) | Activity (Rattus norvegicus [2]) | Activity (Rattus norvegicus [3]) | Activity (Rattus norvegicus [4]) | Activity (Rattus norvegicus [5]) | Activity (Rattus norvegicus [6]) | Activity (Rattus norvegicus [7]) | Activity (Rattus norvegicus [8]) | Activity (Rattus norvegicus [9]) |
| --- | --- | --- | --- | --- | --- | --- | --- | --- | --- |
| CC[C@H](C)[C@H](NC(=O)[C@H](Cc1ccc(O)cc1)NC(=O)[C@@H](NC(=O)[C@H](CCCNC(=N)N)NC(=O)[C@@H](N)CC(=O)O)C(C)C)C(=O)N[C@@H](Cc1cnc[nH]1)C(=O)N1CCC[C@H]1C(=O)N[C@@H](Cc1ccccc1)C(=O)O [ANGIOTENSIN II] | 100% | 73.5% |  |  |  |  |  |  |  |
| H-DRVYIHPFHL-OH | 58.6% | 43.1% |  |  |  |  |  |  |  |
| H-DRVYVHPF-OH [[Val5] - ANGIOTENSIN II] | 136% | 100% |  |  |  |  |  |  |  |
| H-DRVYVHPFHL-OH | 51.5% | 37.8% |  |  |  |  |  |  |  |
| H-DRVYVHPFSL-OH | 94.1% | 69.2% | 182.8% | 180.8% | 160.4% | 114.4% | 91.2% | 157% | 85.1% |
